Source: publication PMC5392334, “Discovery and characterization of a novel irreversible EGFR mutants selective and potent kinase inhibitor CHMFL-EGFR-26 with a distinct binding mode” (Oncotarget, 2017)
“And” between values parts separate entries of the source, which are not always exact repeats. Equal values may be shown once. Read-outs that look alike come from different tables or passages of the source.

Legend:
[1] = target: T1, ABL1(Y253F)-phosphorylated (Homo sapiens, UniProt P00519, Y253F); assay: KinomeScan; type: binding; conditions: read-out: % control
T1 construct: purchased DiscoveRx KINOMEscan

[2] = target: T2, ACVRL1 (Homo sapiens, UniProt P37023); assay: KinomeScan; type: binding; conditions: read-out: % control
T2 construct: purchased DiscoveRx KINOMEscan

[3] = target: T3, BRSK1 (Homo sapiens, UniProt Q8TDC3); assay: KinomeScan; type: binding; conditions: read-out: % control
T3 construct: purchased DiscoveRx KINOMEscan

[4] = target: T4, CAMK1D (Homo sapiens, UniProt Q8IU85); assay: KinomeScan; type: binding; conditions: read-out: % control
T4 construct: purchased DiscoveRx KINOMEscan

[5] = target: T5, CAMK2B (Homo sapiens, UniProt Q13554); assay: KinomeScan; type: binding; conditions: read-out: % control
T5 construct: purchased DiscoveRx KINOMEscan

[6] = target: T6, CDK11 (Homo sapiens, UniProt Q9BWU1); assay: KinomeScan; type: binding; conditions: read-out: % control
T6 construct: purchased DiscoveRx KINOMEscan

[7] = target: T7, CDK3 (Homo sapiens, UniProt Q00526); assay: KinomeScan; type: binding; conditions: read-out: % control
T7 construct: purchased DiscoveRx KINOMEscan

[8] = target: T8, CDKL3 (Homo sapiens, UniProt Q8IVW4); assay: KinomeScan; type: binding; conditions: read-out: % control
T8 construct: purchased DiscoveRx KINOMEscan

[9] = target: T9, CLK2 (Homo sapiens, UniProt P49760); assay: KinomeScan; type: binding; conditions: read-out: % control
T9 construct: purchased DiscoveRx KINOMEscan

[10] = target: T10, CLK3 (Homo sapiens, UniProt P49761); assay: KinomeScan; type: binding; conditions: read-out: % control
T10 construct: purchased DiscoveRx KINOMEscan

[11] = target: T11, DDR2 (Homo sapiens, UniProt Q16832); assay: KinomeScan; type: binding; conditions: read-out: % control
T11 construct: purchased DiscoveRx KINOMEscan

[12] = target: T12, EGFR(L858R,T790M) (Homo sapiens, UniProt P00533, L858R/T790M); assay: KinomeScan; type: binding; conditions: read-out: % control
T12 construct: purchased DiscoveRx KINOMEscan

[13] = target: T13, ERBB3 (Homo sapiens, UniProt P21860); assay: KinomeScan; type: binding; conditions: read-out: % control
T13 construct: purchased DiscoveRx KINOMEscan
T13 sequence (P21860 20-1342): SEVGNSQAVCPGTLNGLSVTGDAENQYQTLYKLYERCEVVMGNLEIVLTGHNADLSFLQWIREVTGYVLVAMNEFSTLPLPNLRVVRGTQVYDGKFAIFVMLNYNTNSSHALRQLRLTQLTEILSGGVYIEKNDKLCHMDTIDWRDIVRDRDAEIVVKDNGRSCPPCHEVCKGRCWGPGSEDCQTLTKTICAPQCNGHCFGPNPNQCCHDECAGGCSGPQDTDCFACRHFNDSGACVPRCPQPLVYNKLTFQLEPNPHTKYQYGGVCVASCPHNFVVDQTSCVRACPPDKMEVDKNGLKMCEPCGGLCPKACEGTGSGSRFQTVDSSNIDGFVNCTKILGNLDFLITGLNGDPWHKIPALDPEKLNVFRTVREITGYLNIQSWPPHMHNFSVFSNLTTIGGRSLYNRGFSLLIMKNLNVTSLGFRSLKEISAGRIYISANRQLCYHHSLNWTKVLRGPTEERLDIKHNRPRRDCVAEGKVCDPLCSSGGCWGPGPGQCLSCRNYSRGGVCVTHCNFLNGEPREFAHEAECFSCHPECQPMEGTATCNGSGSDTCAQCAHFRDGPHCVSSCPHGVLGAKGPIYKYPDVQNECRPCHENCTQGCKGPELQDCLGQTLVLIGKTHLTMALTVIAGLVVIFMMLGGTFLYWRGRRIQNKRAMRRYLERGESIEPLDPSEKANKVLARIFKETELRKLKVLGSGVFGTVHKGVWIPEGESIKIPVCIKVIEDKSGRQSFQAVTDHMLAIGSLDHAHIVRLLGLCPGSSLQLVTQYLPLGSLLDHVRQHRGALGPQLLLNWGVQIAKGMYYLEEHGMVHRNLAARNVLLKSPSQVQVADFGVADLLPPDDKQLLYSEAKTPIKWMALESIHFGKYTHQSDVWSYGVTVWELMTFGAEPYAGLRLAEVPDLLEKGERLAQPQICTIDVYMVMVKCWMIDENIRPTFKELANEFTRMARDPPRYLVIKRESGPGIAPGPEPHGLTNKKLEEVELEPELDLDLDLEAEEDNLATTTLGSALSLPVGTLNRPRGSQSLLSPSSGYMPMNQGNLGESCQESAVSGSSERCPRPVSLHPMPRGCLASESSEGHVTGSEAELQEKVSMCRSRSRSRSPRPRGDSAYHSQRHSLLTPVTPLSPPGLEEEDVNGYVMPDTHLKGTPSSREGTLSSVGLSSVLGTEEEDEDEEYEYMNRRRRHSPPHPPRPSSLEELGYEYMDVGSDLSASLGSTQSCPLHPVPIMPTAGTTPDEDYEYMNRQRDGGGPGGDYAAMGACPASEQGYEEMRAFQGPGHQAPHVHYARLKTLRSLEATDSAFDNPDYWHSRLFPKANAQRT

[14] = target: T14, ERBB4 (Homo sapiens, UniProt Q15303); assay: KinomeScan; type: binding; conditions: read-out: % control
T14 construct: purchased DiscoveRx KINOMEscan

[15] = target: T15, FES (Homo sapiens, UniProt P07332); assay: KinomeScan; type: binding; conditions: read-out: % control
T15 construct: purchased DiscoveRx KINOMEscan

[16] = target: T16, FLT4 (Homo sapiens, UniProt P35916); assay: KinomeScan; type: binding; conditions: read-out: % control
T16 construct: purchased DiscoveRx KINOMEscan

[17] = target: T17, JAK1(JH2domain-pseudokinase) (Homo sapiens, UniProt P23458); assay: KinomeScan; type: binding; conditions: read-out: % control
T17 construct: JAK1(JH2domain-pseudokinase); purchased DiscoveRx KINOMEscan

[18] = target: T18, LCK (Homo sapiens, UniProt P06239); assay: KinomeScan; type: binding; conditions: read-out: % control
T18 construct: purchased DiscoveRx KINOMEscan

[19] = target: T19, MAST1 (Homo sapiens, UniProt Q9Y2H9); assay: KinomeScan; type: binding; conditions: read-out: % control
T19 construct: purchased DiscoveRx KINOMEscan
T19 sequence (Q9Y2H9 whole entry): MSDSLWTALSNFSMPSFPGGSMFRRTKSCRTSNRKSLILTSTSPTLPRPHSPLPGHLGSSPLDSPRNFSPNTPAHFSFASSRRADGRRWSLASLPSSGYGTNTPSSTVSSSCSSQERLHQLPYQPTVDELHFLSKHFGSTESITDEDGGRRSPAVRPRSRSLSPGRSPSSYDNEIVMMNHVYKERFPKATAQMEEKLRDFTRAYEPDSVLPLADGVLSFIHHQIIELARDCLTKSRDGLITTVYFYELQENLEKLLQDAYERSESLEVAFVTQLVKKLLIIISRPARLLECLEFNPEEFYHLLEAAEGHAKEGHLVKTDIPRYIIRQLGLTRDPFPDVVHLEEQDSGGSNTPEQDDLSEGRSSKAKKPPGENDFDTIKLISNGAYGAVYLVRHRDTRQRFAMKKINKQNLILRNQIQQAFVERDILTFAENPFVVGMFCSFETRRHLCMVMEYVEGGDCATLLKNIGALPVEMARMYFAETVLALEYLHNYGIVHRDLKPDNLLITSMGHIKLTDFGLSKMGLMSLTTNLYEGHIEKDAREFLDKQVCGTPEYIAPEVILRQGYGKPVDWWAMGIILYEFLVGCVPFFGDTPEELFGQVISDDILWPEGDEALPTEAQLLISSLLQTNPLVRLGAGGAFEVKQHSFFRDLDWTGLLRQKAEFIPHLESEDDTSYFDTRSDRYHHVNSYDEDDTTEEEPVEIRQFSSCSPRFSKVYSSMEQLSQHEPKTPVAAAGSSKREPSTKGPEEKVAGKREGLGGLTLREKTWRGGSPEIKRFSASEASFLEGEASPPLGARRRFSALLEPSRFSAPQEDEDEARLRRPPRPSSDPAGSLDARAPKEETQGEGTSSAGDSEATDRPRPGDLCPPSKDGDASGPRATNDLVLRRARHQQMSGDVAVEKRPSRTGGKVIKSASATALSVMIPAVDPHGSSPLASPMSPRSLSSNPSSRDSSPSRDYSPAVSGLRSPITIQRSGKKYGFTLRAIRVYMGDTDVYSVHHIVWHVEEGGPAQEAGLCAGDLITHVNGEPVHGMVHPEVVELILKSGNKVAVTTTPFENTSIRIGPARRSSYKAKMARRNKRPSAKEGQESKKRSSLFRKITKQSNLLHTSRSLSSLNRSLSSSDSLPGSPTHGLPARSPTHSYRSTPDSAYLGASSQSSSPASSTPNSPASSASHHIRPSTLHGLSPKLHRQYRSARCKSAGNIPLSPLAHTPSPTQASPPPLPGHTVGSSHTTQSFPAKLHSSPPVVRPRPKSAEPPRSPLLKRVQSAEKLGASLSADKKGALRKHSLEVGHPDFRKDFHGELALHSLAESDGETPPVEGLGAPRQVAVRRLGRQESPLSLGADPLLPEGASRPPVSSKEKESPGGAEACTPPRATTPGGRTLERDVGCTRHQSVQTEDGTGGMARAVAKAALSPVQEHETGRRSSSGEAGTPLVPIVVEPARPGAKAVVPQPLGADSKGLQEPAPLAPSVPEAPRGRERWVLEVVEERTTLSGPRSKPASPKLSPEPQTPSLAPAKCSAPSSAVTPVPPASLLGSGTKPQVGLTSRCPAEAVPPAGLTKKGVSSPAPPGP

[20] = target: T20, MYO3B (Homo sapiens, UniProt Q8WXR4); assay: KinomeScan; type: binding; conditions: read-out: % control
T20 construct: purchased DiscoveRx KINOMEscan

[21] = target: T21, NLK (Homo sapiens, UniProt Q9UBE8); assay: KinomeScan; type: binding; conditions: read-out: % control
T21 construct: purchased DiscoveRx KINOMEscan

[22] = target: T22, PHKG2 (Homo sapiens, UniProt P15735); assay: KinomeScan; type: binding; conditions: read-out: % control
T22 construct: purchased DiscoveRx KINOMEscan

[23] = target: T23, PIK3C2G (Homo sapiens, UniProt O75747); assay: KinomeScan; type: binding; conditions: read-out: % control
T23 construct: purchased DiscoveRx KINOMEscan

[24] = target: T24, PKNB(M.tuberculosis) (Mycobacterium tuberculosis, UniProt P9WI81); assay: KinomeScan; type: binding; conditions: read-out: % control
T24 construct: purchased DiscoveRx KINOMEscan
T24 sequence (P9WI81 whole entry): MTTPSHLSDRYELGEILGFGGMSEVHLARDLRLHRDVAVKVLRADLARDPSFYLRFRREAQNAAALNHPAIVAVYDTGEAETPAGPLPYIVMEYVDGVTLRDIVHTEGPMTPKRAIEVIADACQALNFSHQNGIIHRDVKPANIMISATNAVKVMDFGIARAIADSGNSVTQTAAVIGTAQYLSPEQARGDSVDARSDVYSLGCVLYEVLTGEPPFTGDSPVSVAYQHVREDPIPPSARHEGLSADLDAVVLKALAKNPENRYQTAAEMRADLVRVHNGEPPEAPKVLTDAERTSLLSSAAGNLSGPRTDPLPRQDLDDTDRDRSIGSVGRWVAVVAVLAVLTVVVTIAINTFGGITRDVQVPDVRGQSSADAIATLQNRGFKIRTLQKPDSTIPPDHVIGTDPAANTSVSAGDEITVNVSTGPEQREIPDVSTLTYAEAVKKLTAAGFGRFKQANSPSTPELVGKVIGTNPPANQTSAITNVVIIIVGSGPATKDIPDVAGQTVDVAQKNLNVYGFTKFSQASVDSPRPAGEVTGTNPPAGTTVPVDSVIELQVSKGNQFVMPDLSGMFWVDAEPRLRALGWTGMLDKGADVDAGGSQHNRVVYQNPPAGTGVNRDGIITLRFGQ

[25] = target: T25, ROCK1 (Homo sapiens, UniProt Q13464); assay: KinomeScan; type: binding; conditions: read-out: % control
T25 construct: purchased DiscoveRx KINOMEscan

[26] = target: T26, RSK3(Kin.Dom.2-C-terminal) (Homo sapiens, UniProt Q15349); assay: KinomeScan; type: binding; conditions: read-out: % control
T26 construct: RSK3(Kin.Dom.2-C-terminal); purchased DiscoveRx KINOMEscan
T26 sequence (Q15349 389-733 limits assumed): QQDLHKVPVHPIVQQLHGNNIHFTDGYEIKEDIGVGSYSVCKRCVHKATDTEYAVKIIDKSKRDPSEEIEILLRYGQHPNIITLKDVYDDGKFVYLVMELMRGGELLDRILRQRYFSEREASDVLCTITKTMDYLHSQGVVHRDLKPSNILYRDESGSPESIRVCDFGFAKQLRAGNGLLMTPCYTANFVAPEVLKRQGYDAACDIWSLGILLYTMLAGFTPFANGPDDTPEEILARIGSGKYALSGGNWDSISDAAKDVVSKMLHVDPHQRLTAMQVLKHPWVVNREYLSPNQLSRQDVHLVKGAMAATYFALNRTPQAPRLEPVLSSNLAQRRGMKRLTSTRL

[27] = target: T27, SIK2 (Homo sapiens, UniProt Q9H0K1); assay: KinomeScan; type: binding; conditions: read-out: % control
T27 construct: purchased DiscoveRx KINOMEscan

[28] = target: T28, SNRK (Homo sapiens, UniProt Q9NRH2); assay: KinomeScan; type: binding; conditions: read-out: % control
T28 construct: purchased DiscoveRx KINOMEscan

[29] = target: T29, SRC (Homo sapiens, UniProt P12931); assay: KinomeScan; type: binding; conditions: read-out: % control
T29 construct: purchased DiscoveRx KINOMEscan

[30] = target: T30, TAK1 (Homo sapiens, UniProt O43318); assay: KinomeScan; type: binding; conditions: read-out: % control
T30 construct: purchased DiscoveRx KINOMEscan

[31] = target: T31, TAOK1 (Homo sapiens, UniProt Q7L7X3); assay: KinomeScan; type: binding; conditions: read-out: % control
T31 construct: purchased DiscoveRx KINOMEscan

[32] = target: T32, YANK3 (Homo sapiens, UniProt Q86UX6); assay: KinomeScan; type: binding; conditions: read-out: % control
T32 construct: purchased DiscoveRx KINOMEscan

[33] = tested on: NSCLC cell lines (H1975, HCC827, PC9, H3255; A549, H1355); assay: Cell cycle analysis; type: cell-based, human
Description: We then examined CHMFL-EGFR-26's effect on cell cycle progression and apoptosis.
The cells were fixed in 70% cold ethanol and incubated at −20 °C overnight then stained with PI/RNase staining buffer (BD Pharmingen). Flow cytometry was performed using a FACS Calibur (BD), and results were analyzed by ModFit software.

[34] = Pharmacokinetic properties in rats; type: in vivo; conditions: for MRT last: read-out: MRT(0-t)
Description: To further investigate the effect of CHMFL-EGFR-26 in vivo, we first examined its pharmacokinetic properties in rats (Supplementary Table 5). The half-life is 0.8 hour by oral dosing which is short but considering the irreversible binding mode, this short half-life was preferred. […]

[35] = target: EGFR(ErbB1) (Homo sapiens, UniProt P00533); assay: SelectScreen biochemical assay
Sequence of EGFR(ErbB1) (P00533 25-1210): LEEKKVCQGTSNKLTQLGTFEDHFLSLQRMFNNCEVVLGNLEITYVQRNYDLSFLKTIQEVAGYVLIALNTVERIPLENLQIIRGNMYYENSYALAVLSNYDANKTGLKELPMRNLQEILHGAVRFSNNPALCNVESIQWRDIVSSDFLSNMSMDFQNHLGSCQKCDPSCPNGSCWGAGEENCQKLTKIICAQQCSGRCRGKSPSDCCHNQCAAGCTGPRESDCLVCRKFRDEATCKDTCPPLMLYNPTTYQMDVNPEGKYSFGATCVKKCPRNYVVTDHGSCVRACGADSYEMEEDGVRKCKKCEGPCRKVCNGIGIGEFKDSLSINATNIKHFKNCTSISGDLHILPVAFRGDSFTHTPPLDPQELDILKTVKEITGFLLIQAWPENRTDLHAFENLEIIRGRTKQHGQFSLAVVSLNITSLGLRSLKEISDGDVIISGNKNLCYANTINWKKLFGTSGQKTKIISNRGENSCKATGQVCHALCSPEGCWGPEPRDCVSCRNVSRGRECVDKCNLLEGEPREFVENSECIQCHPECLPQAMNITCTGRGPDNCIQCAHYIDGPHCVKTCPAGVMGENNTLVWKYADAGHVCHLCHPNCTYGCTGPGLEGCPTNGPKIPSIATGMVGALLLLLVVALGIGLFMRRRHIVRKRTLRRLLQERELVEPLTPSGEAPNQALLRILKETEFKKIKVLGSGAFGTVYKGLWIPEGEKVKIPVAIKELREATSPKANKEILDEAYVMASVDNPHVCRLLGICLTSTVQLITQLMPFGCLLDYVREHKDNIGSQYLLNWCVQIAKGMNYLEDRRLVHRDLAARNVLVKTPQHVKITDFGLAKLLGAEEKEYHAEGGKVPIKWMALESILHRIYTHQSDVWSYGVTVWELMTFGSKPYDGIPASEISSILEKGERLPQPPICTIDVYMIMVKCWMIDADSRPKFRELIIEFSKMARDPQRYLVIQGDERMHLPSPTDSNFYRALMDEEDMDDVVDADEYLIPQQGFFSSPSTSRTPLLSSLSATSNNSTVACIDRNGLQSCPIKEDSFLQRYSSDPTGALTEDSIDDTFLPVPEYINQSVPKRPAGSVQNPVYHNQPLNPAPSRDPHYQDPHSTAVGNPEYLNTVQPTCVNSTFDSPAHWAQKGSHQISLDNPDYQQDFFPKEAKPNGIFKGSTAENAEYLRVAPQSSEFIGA
Description: The enzymatic inhibition result of CHMFL-EGFR-26 was detected by SelectScreen techonology (Life Technologies).

[36] = rat, in vivo, po, P.O. (10mg/kg)

For `C=CC(=O)N1CCC[C@@H](n2nc(-c3ccc(OCc4cccc(C)n4)c(Cl)c3)c3c(N)ncnc32)C1` [CHMFL-EGFR-26], the remaining binding at 1 µM [1] was 100%, the remaining binding at 1 µM [2] was 100% and the remaining binding at 1 µM [3] was 93%. For the same compound, the remaining binding at 1 µM [4] was 91%, the remaining binding at 1 µM [5] was 97% and the remaining binding at 1 µM [6] was 100%. It also gave a remaining binding at 1 µM [7] of 84%, a remaining binding at 1 µM [8] of 97% and a remaining binding at 1 µM [9] of 96%. For the same compound, the remaining binding at 1 µM [10] was 100%, the remaining binding at 1 µM [11] was 90% and the remaining binding at 1 µM [12] was 2.8%. It also gave a remaining binding at 1 µM [13] of 89%, a remaining binding at 1 µM [14] of 0.45% and a remaining binding at 1 µM [15] of 97%. It also gave a remaining binding at 1 µM [16] of 99%, a remaining binding at 1 µM [17] of 84% and a remaining binding at 1 µM [18] of 33%. It also gave a remaining binding at 1 µM [19] of 93%, a remaining binding at 1 µM [20] of 98% and a remaining binding at 1 µM [21] of 70%. The remaining binding at 1 µM [22] was 100%, the remaining binding at 1 µM [23] was 100% and the remaining binding at 1 µM [24] was 100%. The remaining binding at 1 µM [25] was 100%, the remaining binding at 1 µM [26] was 85% and the remaining binding at 1 µM [27] was 93%. It also gave a remaining binding at 1 µM [28] of 100%, a remaining binding at 1 µM [29] of 100% and a remaining binding at 1 µM [30] of 100%. For the same compound, the remaining binding at 1 µM [31] was 100%, the remaining binding at 1 µM [32] was 90% and the cell cycle progression ([33]; H1975, HCC827, PC9 and H3255 (EGFR mutants), 24-hour) was “dramatically blocked cell cycle at G0/G1 phase”. For the same compound, the cell cycle progression ([33]; wild-type EGFR lines A549 and H1355, up to 3 μM, 72-hour) was “did not cause cell cycle arrest”, the CLz ([34]; P.O. (10mg/kg)) was 42.2 ± 7.5 mL/min/kg and the Vz ([34]; P.O. (10mg/kg)) was 2.62 ± 0.14 L/kg. It also gave a T1/2 ([34]; P.O. (10mg/kg), 10 mg/kg) of 48 min, a half-life ([34]; rat, in vivo, iv, 1 mg/kg, I.V (1mg/kg)) of 18.6 ± 4.92 min and an AUC(0-inf) ([34]; rat, in vivo, iv, I.V (1mg/kg)) of 1190 ± 143 ng·h/mL. For the same compound, the AUC(0-t) ([34]; rat, in vivo, iv, I.V (1mg/kg)) was 1190 ± 142 ng·h/mL, the Cmax ([34]; rat, in vivo, iv, I.V (1mg/kg)) was 10600 ± 1650 ng/mL and the Tmax ([34]; rat, in vivo, iv, I.V (1mg/kg)) was 1.02 min. It also gave a clearance ([34]; rat, in vivo, iv, I.V (1mg/kg), read-out: CLz (converted)) of 14.2 mL/min/kg, an MRT last ([34]; rat, in vivo, iv, I.V (1mg/kg)) of 10.8 ± 2.1 min and a Vd ([34]; rat, in vivo, iv, I.V (1mg/kg), read-out: Vz) of 0.38 ± 0.13 L/kg. The half-life ([34]; rat, in vivo, po, 10 mg/kg, P.O. (10mg/kg)) was 44.4 ± 9 min, the AUC(0-inf) [34, 36] was 4040 ± 717 ng·h/mL and the AUC(0-t) [34, 36] was 4040 ± 716 ng·h/mL. The Cmax [34, 36] was 5210 ± 859 ng/mL, the Tmax [34, 36] was 19.8 ± 8.4 min and the bioavailability ([34]; rat, in vivo, po, P.O. (10mg/kg), read-out: F% (bioavailability)) was 33.8%. For the same compound, the MRT last [34, 36] was 43.2 ± 4.14 min and the IC50 [35] was 71 nM and 71.4 nM.
